Results published in publication PMC9926234, “Iterative computational design and crystallographic screening identifies potent inhibitors targeting the Nsp3 macrodomain of SARS-CoV-2” (Proceedings of the National Academy of Sciences of the …, 2023).
“And” between values parts separate entries of the source, which are not always exact repeats. Equal entries are not always repeated. Where two headings read alike, the source gives them in different places.

Experiments:
SARS-CoV-2 NSP3 Mac1 [1] = biological target: T1, SARS-CoV-2 NSP3 Mac1 (Severe acute respiratory syndrome coronavirus 2, UniProt P0DTD1); design: contains a conserved macrodomain enzyme (Mac1); Differential scanning fluorimetry of Mac1, maximum thermal upshift; conditions: maximum shift over tested concentrations; binder
SARS-CoV-2 NSP3 Mac1 [2] = biological target: T1, SARS-CoV-2 NSP3 Mac1; format: binding; conditions: for Refined occupancy: ligand occupancy after refinement (phenix.refine); for HIT*: true hit = binding in crystallographic soaking or the HTRF-based binding assay
SARS-CoV-2 NSP3 Mac1 [3] = biological target: T1, SARS-CoV-2 NSP3 Mac1; format: binding; design: contains a conserved macrodomain enzyme (Mac1); conditions: for Spearman est (compound concentration vs apparent Tm): DSF dose responsiveness, 1 µM nsp3 mac1, adj p given; for DSF max dTma: maximal thermal upshift
Outline: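 ΔTma values are thermal shifts relative to a co-located DMSO-only control, read with 5 µM Fluorescent Yellow dye. Each compound was tested in triplicate over seven concentrations (two-fold steps, top 1,000 or 100 μM). Spearman correlation of concentration versus ΔTma tested whether the shift was dose-responsive.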

MacroD2 = biological target: T2, MacroD2 (Homo sapiens, UniProt A1Z1Q3); assay: adapted HTRF-based peptide displacement assay (off-target); format: binding; conditions: for binding / activity against MacroD2: compound at 160 µM
T2 construct: MacroD2_HTRF; HTRF assay; pET22b(+); His6, TEV, Avi; made in house
T2 sequence (A1Z1Q3 with tags, fused parts or gaps): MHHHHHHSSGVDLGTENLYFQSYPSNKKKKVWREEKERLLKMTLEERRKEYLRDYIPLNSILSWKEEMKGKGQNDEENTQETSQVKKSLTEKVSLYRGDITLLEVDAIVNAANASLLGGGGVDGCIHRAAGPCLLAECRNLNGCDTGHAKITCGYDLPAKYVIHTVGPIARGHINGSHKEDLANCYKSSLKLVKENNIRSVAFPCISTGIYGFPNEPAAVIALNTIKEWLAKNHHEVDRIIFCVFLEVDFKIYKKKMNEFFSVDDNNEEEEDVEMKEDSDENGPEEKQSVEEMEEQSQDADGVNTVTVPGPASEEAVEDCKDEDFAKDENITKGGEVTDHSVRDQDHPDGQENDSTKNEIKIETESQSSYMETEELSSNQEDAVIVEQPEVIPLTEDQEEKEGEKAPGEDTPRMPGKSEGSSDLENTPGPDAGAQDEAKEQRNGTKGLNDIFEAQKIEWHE

TARG1 = biological target: T3, TARG1 (Homo sapiens, UniProt Q9Y530); assay: as above; format: binding; conditions: for binding / activity against TARG1: compound at 160 µM
T3 construct: Targ1_HTRF; HTRF assay; pET22b(+); His6, TEV; 1-153; made in house
T3 sequence (Q9Y530 with tags, fused parts or gaps): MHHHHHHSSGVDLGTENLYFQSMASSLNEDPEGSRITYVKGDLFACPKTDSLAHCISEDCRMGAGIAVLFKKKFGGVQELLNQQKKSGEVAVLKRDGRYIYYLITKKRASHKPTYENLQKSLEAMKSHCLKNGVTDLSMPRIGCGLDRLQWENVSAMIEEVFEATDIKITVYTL

SARS-CoV-2 NSP3 Mac1 [4] = biological target: T1, SARS-CoV-2 NSP3 Mac1; assay: biochemical; format: binding; conditions: for IC50: read-out: IC50; for Ki: read-out: Ki***
SARS-CoV-2 NSP3 Mac1 [5] = assay: Overall hit call (binding in crystallographic soaking or the HTRF-based binding assay)
Description: Supplement pnas.2212931120.sd01.xlsx, sheet "Compound Summary" | column: HIT*

[6] = tested on: P-glycoprotein (human MDR1); assay: in vitro; conditions: dog, MDCK-MDR1, pH 7.4, permeability, MDR1-MDCKII
Description: Permeability of compounds was assessed using canine MDR1 knockout and human MDR1 knockin MDCKII cells (MDR1-MDCKII) (Sigma-Aldrich, MTOX1303) in confluent monolayers expressing P-glycoprotein (P-gp) at Enamine biological services Bienta LTD (Kyiv, Ukraine).
Canine MDR1 knockout, human MDR1 knockin MDCKII cell (MDR1-MDCKII) (Sigma-Aldrich,
MTOX1303) suspension (400 μl) was added to each well of high throughput screening multiwell
insert system plates. Test compounds were prepared as 20 mM DMSO stocks. The test compound
(300 µl) was dissolved in transport buffer (9.5 g/l Hanks’ balanced salt solution and 0.35 g/l NaHCO3
wells whereas 1000 µl of transport buffer was added to transport analysis plate wells in order to
determine apical (A) to basolateral (B) transport. Basolateral to apical transport was measured by
adding 1000 µl of the test compound solution into the transport analysis plate wells whereas 300
µl of buffer was used to fill the filter plate wells.
were taken from the donor and receiver compartments for LC-MS/MS analysis. Samples were
mixed with acetonitrile followed by protein sedimentation by centrifugation at 1000 rpm for 10 min.
HPLC coupled with tandem mass spectroscopy was performed using the Shimadzu Prominence
HPLC system coupled with the API 5000 (PE Sciex) spectrometer. Both the positive and negative
ion modes of the TurboIonSpray ion source were used. The apparent permeability (Papp) was
computed using the equation 1, where VA is the volume of transport buffer in acceptor wel, Area is
the surface area of the insert, Time is the assay time, [drug]acc is the peak area of test compound
in acceptor well, and [drug]initial,d is the initial amount of the test compound in a donor well.

[7] = PanDDA event map, 1 minus background density correction, crystal soaking of Mac1
[8] = ligand modeled from this dataset, compound concentration 100 mM, Echo dispense volume 40 or 80 nl
[9] = HTRF ADPr-peptide displacement from SARS-CoV-2 Mac1
[10] = Ki estimation from HTRF-derived IC50, Cheng-Prusoff, peptide 400nM, Kd 2.68µM
[11] = ligand modeled from this dataset, compound concentration 100 mM
[12] = PanDDA 1-BDC value of the event, crystal soak, compound concentration 100 mM, per dataset
[13] = crystal soak, compound concentration 100 mM, per dataset

Compound	DSF max dTma (SARS-CoV-2 NSP3 Mac1 [1]) [°C]	1-BDC (SARS-CoV-2 NSP3 Mac1 [2]; [7])	Refined occupancy (SARS-CoV-2 NSP3 Mac1 [2]; crystal soaking of Mac1)	HIT* (SARS-CoV-2 NSP3 Mac1 [2])	Spearman est (compound concentration vs apparent Tm) (SARS-CoV-2 NSP3 Mac1 [3])	DSF max dTma (SARS-CoV-2 NSP3 Mac1 [3])	IC50 (SARS-CoV-2 NSP3 Mac1 [4]; [9])	IC50 (SARS-CoV-2 NSP3 Mac1 [4]; HTRF)	Ki (SARS-CoV-2 NSP3 Mac1 [4]; [10])	1-BDC (PanDDA) (SARS-CoV-2 NSP3 Mac1 [2]; [7])	Modeled? (SARS-CoV-2 NSP3 Mac1 [2]; [11])	also measured
Cc1noc(CC2CCCN(c3ncnc4[nH]c5cc(F)ccc5c34)C2)n1 (stereo not shown) [LL1_0005]	0.6	0.11	22	Y	0.01	0.6 ˚C	–	–	–	–	–	–
O=C(O)CC1CN(c2ncnc3[nH]c4cc(F)ccc4c23)CCO1 (stereo not shown) [LL1_0014]	–	0.11	22	Y	0.91	3.21 ˚C	16 to 29 µM and 16.4 to 28.7 µM	16.4 µM and 28.7 µM	14.3 µM and 25 µM	–	–	displacement of the ADPr-conjugated peptide (off-target activity) (MacroD2; compound at 1 mM): 50%; displacement of the ADPr-conjugated peptide (off-target activity) (TARG1; compound at 1 mM): 50%; Modeled? (SARS-CoV-2 NSP3 Mac1 [2]; [8]): TRUE
O=c1[nH]nc(C2CCCN(c3ncnc4[nH]c5cc(F)ccc5c34)C2)o1 (stereo not shown) [LL1_0017]	0.5	–	18	Y	0.18	0.5 ˚C	–	–	–	0.09	TRUE	–
O=C(O)CCC1CCCN(c2ncnc3[nH]c4cc(F)ccc4c23)C1 (stereo not shown) [LL1_0018]	2.71	–	20	Y	0.96	2.71 ˚C	–	25.8 µM	22.4 µM	0.1	TRUE	–
O=C(O)C1(F)CN(c2cc(Nc3ccccc3)ncn2)CC12CCC2 (stereo not shown) [LL1_0025]	1.36	–	28	Y	0.71	1.36 ˚C	–	121 µM	106 µM	0.14	TRUE	1-BDC (SARS-CoV-2 NSP3 Mac1 [2]; [12]): 0.12; PanDDA hit? (SARS-CoV-2 NSP3 Mac1 [2]; [13]): TRUE
CS(=O)(=O)C1CCCN(c2ncnc3[nH]c4cc(F)ccc4c23)C1 (stereo not shown) [LL1_0027]	0.8	0.06	12	Y	0.41	0.8 ˚C	–	–	–	–	–	1-BDC (SARS-CoV-2 NSP3 Mac1 [2]; [12]): 0.09; PanDDA hit? (SARS-CoV-2 NSP3 Mac1 [2]; [13]): TRUE; Modeled? (SARS-CoV-2 NSP3 Mac1 [2]; [8]): TRUE
Fc1ccc2c(c1)[nH]c1ncnc(N3CCOC(c4nnn[nH]4)C3)c12 (stereo not shown) [LL114_0008]	–	–	50	–	–	–	17 µM	–	–	0.25	–	displacement of the ADPr-conjugated peptide (off-target activity) (MacroD2; compound at 50 µM): showed measurable peptide displacement; displacement of the ADPr-conjugated peptide (off-target activity) (TARG1; compound at 50 µM): showed measurable peptide displacement; 1-BDC (SARS-CoV-2 NSP3 Mac1 [2]; PanDDA event map, crystal soak, Compound_concentration 100 mM, Echo_dispense_volume 40 nl): 0.25; PanDDA hit? (SARS-CoV-2 NSP3 Mac1 [2]; crystal soak, Compound_concentration 100 mM, Echo_dispense_volume 40 nl, PanDDA run (background map) dmso_34, nohits_35 or nohits_62): TRUE; Modeled? (SARS-CoV-2 NSP3 Mac1 [2]; ligand modeled, crystal soak, Compound_concentration 100 mM, Echo_dispense_volume 40 nl): TRUE; HIT* (SARS-CoV-2 NSP3 Mac1 [5]): Y; IC50 (SARS-CoV-2 NSP3 Mac1 [4]; HTRF ADPr-conjugated peptide displacement): 17.2 µM; Ki (SARS-CoV-2 NSP3 Mac1 [4]): 15 µM
O=C1CCCN1Nc1ncnc2[nH]c3cc(F)ccc3c12 [LRH-0003]	–	–	–	–	–	–	–	–	–	–	–	binding / activity against MacroD2 (MacroD2): neither neutral compounds LRH-0003 and LRH-0008 had measurable binding; Papp ([6]; apical to basal): 13.8 ×10⁻⁶ cm/s; Papp ([6]; basal to apical): 24.3 ×10⁻⁶ cm/s; binding / activity against TARG1 (TARG1): neither neutral compounds LRH-0003 and LRH-0008 had measurable binding
O=C1CCCC1Nc1ncnc2[nH]c3cc(F)ccc3c12 (stereo not shown) [LRH-0008]	–	–	–	–	–	–	13.4 µM	–	–	–	–	binding / activity against MacroD2 (MacroD2): neither neutral compounds LRH-0003 and LRH-0008 had measurable binding; binding / activity against TARG1 (TARG1): neither neutral compounds LRH-0003 and LRH-0008 had measurable binding; HIT* (SARS-CoV-2 NSP3 Mac1 [5]): Y; Ki (SARS-CoV-2 NSP3 Mac1 [4]): 11.7 µM
